Like-named read-outs stand apart in the source and are kept apart here.
What was measured:
[1] = biological target: MNase (Staphylococcus aureus, UniProt P00644); test: EGTA inactivation of MNase activity in droplets; assay type: biochemical; conditions: fraction of oligonucleotide remaining measured by TapeStation, normalized to droplets without MNase
Procedure: FIG. 3 depicts the concentration of EGTA necessary to fully inactivates MNase activity in droplets. The fraction of oligonucleotide remaining after incubation was measured by TapeStation and normalized to the digestion negative control (i.e droplets without MNase). 26 mM final concentration of EGTA fully inactivated MNase in droplets.
At the end of the encapsulation, droplets are incubated off-chip for single-cell chromatin fragmentation. Cells are lysed in droplets, making their nuclear DNA accessible for MNase enzyme. The kinetic of the digestion is particularly important to yield preferentially mono-nucleosomes, which are retained in the droplet. The ideal incubation time is defined as the time necessary to get 100% of nuclear DNA fragmented into mono-nucleosomes. The digestion conditions including lysis buffer composition, MNase concentration and incubation time are precisely calibrated for each sample by performing a time-course study. The calibration is carried out as follows: 45 pl droplets containing cells, lysis buffer and MNase are produced, collected in a collection tube and placed at 37° C. for different incubation time. At each time point, a fraction of droplets is broken and MNase immediately inactivated by addition of EGTA (see FIG. 3). DNA fragments are then purified and analyzed by electrophoresis. […]

[2] = test system: HBCx-22 luminal ER+ breast PDX; conditions: cited from earlier work
[3] = test system: HBCx-95 triple-negative breast tumor PDX; test: breast tumor PDX model of acquired resistance to Capecitabine; assay type: in vivo, mice
Procedure: (a) n=6 mice with HBCx-95 derivatives were treated with Capecitabine for 6 weeks. Graphs represent relative tumor volumes (RTV, mm3) with time. Mice with recurrent tumors were treated for a second round of Capecitabine when PDX reached a volume of over 200 mm3 (mice #35, #40 & #33). […] Samples studied in manuscript are indicated with a dashed rectangle. (b) Histograms of the distribution of scChIP-seq raw and unique sequencing reads per cell in untreated HBCx-95 and Capecitabine-resistant HBCx-95-CapaR PDX. (c) Scatter plot displaying the log 2 enrichments in cumulative single-cell versus bulk H3K27me3 ChIP-seq data, calculated based on the counts per million mapped reads in 50 kb genomic bins. Pearson correlation score and p-value are computed genome-wide. (d) Distribution of the log 2 enrichments in 50 kb genomic bins for cumulative single-cell and bulk H3K27me3 ChIP-seq data. Amplitude between maximum and minimum log 2 enrichments are indicated on the top right for each ChIP-seq method (either bulk or single-cell).
It was profiled the H3K27me3 landscape at single-cell resolution for both sensitive and resistant xenografts, HBCx-95 and HBCx-95-CapaR (FIG. 17b), and it was also performed scRNA-seq to evaluate transcriptional heterogeneity within the same cell suspension (FIG. 18a). Cumulative single-cell chromatin profiles match bulk ChIP-seq profiles (FIG. 17c-d, r=0.89 with p<10-15).

O=C(O)CN(CCOCCOCCN(CC(=O)O)CC(=O)O)CC(=O)O [EGTA]
final concentration of EGTA that fully inactivated MNase in droplets [1]: 26 mM

CC/C(=C(\c1ccccc1)c1ccc(OCCN(C)C)cc1)c1ccccc1 [Tamoxifen]
tumor response to Tamoxifen ([2]; HBCx-22-TamR tumor derivative, previously characterized): acquired resistance
tumor response to Tamoxifen ([2]; HBCx-22 PDX): responsive

CCCCCOC(=O)Nc1nc(=O)n([C@@H]2O[C@H](C)[C@@H](O)[C@H]2O)cc1F [Capecitabine]
tumor response to Capecitabine (relative tumor volume) ([3]; mouse #40, recurrent tumor, second round of Capecitabine, PDX extracted at 1080 mm3 as HBCx-95-CapaR): did not respond
tumor response to Capecitabine ([3]; xenograft derivatives from an individual patient (HBCx-95), before two cycles of treatment): initially responsive

Reference: US20220362771A1, “USE OF DROPLET SINGLE CELL EPIGENOME PROFILING FOR PATIENT STRATIFICATION” (HiFiBio SAS, priority 2018, published 2022)
